Laboratory results as given in patent US6686450B1, “Immunosuppressive agents that inhibit calcineurin function and uses of these agents” (Massachusetts Institute of Technology, priority 1998, dated 2004).
Entries after “also recorded” stand apart in the source; their conditions may differ.

Experiments:
Format in all cases: cell-based
[1] = tested on: IL-2 promoter; assay: IL-2 promoter luciferase reporter gene assay in Jurkat T cells; conditions: PMA and ionomycin
[2] = tested on: IL-2 promoter; assay: IL-2 promoter activation in T cells expressing calcineurin mutant; conditions: expressed in T cells
[3] = target: T1, interaction between Cabin 1-14 and full length calcineurin β2 (H160N) (Homo sapiens, UniProt P16298, H160N); assay: mammalian two-hybrid assay in Jurkat T cells (luciferase reporter); conditions: Jurkat T cells, PMA/ionomycin stimulated, drug added 30 min prior to stimulation
T1 construct: expressed in transfected cells; host or cells: Jurkat T cells
Text: A mammalian two-hybrid system was established in Jurkat T cells by fusing calcineurin with the Gal4 DNA binding domain and Cabin 1-14 with the VP16 activation domain (Hsu et al., Proc. Natl. Acid Sci. USA 91:3181-3185 (1994)). The fusion plasmids for mammalian two-hybrid assays were constructed as follows: The cDNAs of calcineurin Aβ2 wild type and H160N mutant were fused to the GAL4 DB in the pM vector (obtained from Clontech, Palo Alto, Calif.) (pMCNβ2 and PMCNβ2 (H160N), and the cDNA of Cabin 1-14 was fused to the VP16 AD in the pVP16 vector (pVPCabin 1-14). Jurkat T cells were transfected with 5 μg of pMCβ2 or pMCβ2 (H160N), 5 μg of pVPCabin 1-14, 1 μg of pCMV-βGal, and 2 μg of pg5Luc, a luciferase reporter plasmid containing GAL4 promoter, by electroporation (960 μF, 250V). After 48 hr, cells were stimulated with 40 nM PMA and 2.5 μM ionomycin, either alone or in combination, for 6 hr before luciferase activity was measured for each sample. The luciferase reporter gene assay reagents were obtained from Promega, Madison, Wis., and the assay was performed per manufacturer's instructions. […] Where appropriate, the transfection efficiency was measured by co-transfecting 2 μg of CMV-driven β-galactosidase expression vector and measuring enzymatic β-galactosidase activity (Ausubel et al., Current Protocols in Molecular Biology (John Wiley & Sons, Inc., New York, 1994)).

Cabin 1: isolated calcineurin binding polypeptide, amino acid sequence SEQ ID NO:1, 2220 amino acids
effect on IL-2 reporter gene activation [1]: lower potency
effect on IL-2 reporter gene activation ([1]; listed as Cabin1): inhibit

H 160N: catalytically inactive mutant of the β2 isoform of calcineurin, used as bait
blocking of PMA and ionomycin-stimulated IL-2 promoter activation [2]: over 60%

bisindolylmaleimide
sensitivity of interaction between full length calcineurin β2 (H160N) and Cabin 1-14 to drug [3]: inhibited the interaction between calcineurin and Cabin 1-14 in a dose-dependent manner; also recorded: sensitive

cyclosporin A [CsA]
sensitivity of interaction between full length calcineurin β2 (H160N) and Cabin 1-14 to drug [3]: sensitive
